Data as given in the NIST ThermoML archive (doi:10.1021/je034222z).

OCCC(F)(F)C(F)(F)C(F)(F)C(F)(F)C(F)(F)C(F)(F)C(F)(F)C(F)(F)F [1-decanol, 3,3,4,4,5,5,6,6,7,7,8,8,9,9,-heptadecafluoro]
Conditions | vapor or sublimation pressure [kPa]
294.1 K, Crystal, Transpiration method | 0.003

Conditions | Normal melting temperature [°C] | vapor or sublimation pressure [kPa]
357.15 K, Liquid | – | 0.708
369.15 K, Liquid | – | 1.465
380.15 K, Liquid | – | 2.774
392.15 K, Liquid | – | 4.91
397.15 K, Liquid | – | 5.1
403.15 K, Liquid | – | 8.284
415.15 K, Liquid | – | 13.8
421.15 K, Liquid | – | 15.27
428.15 K, Liquid | – | 22.75
430.15 K, Liquid | – | 23.4
439.15 K, Liquid | – | 34.45
440.15 K, Liquid | – | 32
445.15 K, Liquid | – | 35.67
452.15 K, Liquid | – | 51.67
463.15 K, Liquid | – | 72.34
468.15 K, Liquid | – | 75.75
474.15 K, Liquid | – | 100.61
498.15 K, Liquid | – | 162.1
Crystal, visual observation | 49.0 | –
